# Data taken from US9902938B2, “Method for inducing exocrine pancreatic cells” (Kyoto University, priority 2012, dated 2018).
# Assays:
# [1] = tested on: PDX1-positive pancreatic precursor cells; assay: Induction of exocrine pancreatic cells from human ES cell-derived pancreatic precursor cells (Example 1, anti-amylase immunostaining); assay type: cell-based; conditions: human ES cells (KhES3)
# Experimental: Human ES cells (KhES3) received from Kyoto University (Kyoto, Japan) were cultured by a conventional method (Mori H, et al., Biochem Biophys Res Commun. 2006, 345, 926-932). ES cells were cultured on 6-cm dishes to 80%-90% confluency, and then 1 mL of Accutase™ was added to disperse ES cells into single cells.
# ES cells dispersed into single cells were induced to differentiate into exocrine pancreatic cells according to protocols shown in FIG. 1. Specifically, the following 5 steps were carried out.
# (Stage 1) ES cells were suspended in a RPMI1640 medium containing 2% B27 and Penicillin/Streptomycin, and then seeded in a matrigel-coated 24-well plate at 250,000/well. 100 ng/ml, Activin A and 1 μM CHIR99021 were added to adjust the amount of the medium to be 0.5 mL/well, and then cells were cultured for […].
# (Stage 2-1) The medium was substituted with DMEM containing 50 ng/ml FGF10, 0.25 μM KAAD (3-Keto-N-(aminoethyl-aminocaproyl-dihydro-cinnamoyl))-cyclopamine, 1% L-Glutamin, 2% B27, 50 mU/L Penicillin and 50 μg/L Streptomycin, and then cells were cultured for 1 day.
# (Stage 2-2) The medium was substituted with DMEM containing 2 μM retinoic acid, 50 ng/ml FGF10, 0.25 μM KAAD-cyclopamine, 1% L-Glutamin, 2% B27, 50 mU/L Penicillin and 50 μg/L Streptomycin, and then cells were cultured for 2 days.
# (Stage 2-3) The medium was substituted with DMEM containing 50 ng/ml FGF10, 300 nM (−)-indolactam V (ILV), 1% L-Glutamin, 2% B27, 50 mU/L Penicillin and 50 μg/L Streptomycin, and then cells were cultured for 4 days.
# (Stage 3) The medium was substituted with DMEM containing 1 μM CHAP108 (formula 10), 300 nM ILV, 1% L-Glutamin, 2% B27, 50 mU/L Penicillin and 50 μg/L. Streptomycin, and then cells were cultured for 4 days or 8 days.
# The result obtained by culturing cells for 12 days in Stage 3 with the use of the ligand protein for a Notch signal, 0.5 mg/ml hDLL4 or 0.5 mg/ml hJAG1, instead of CHAP108 was compared with the result obtained by culturing cells for 4 days in Stage 3 with the use of CHAP108. […]
# [2] = tested on: PDX1-positive pancreatic precursor cells; assay: Induction of exocrine pancreatic cells by modified protocol (Example 2, immunostaining with anti-Amylase); assay type: cell-based; conditions: Stage 3 culture 2 days, 1 μM CHAP108 with 300 nM ILV; human ES cells (KhES3); DMSO negative control 2.8%
# Experimental: ES cells (KhES3) dispersed into single cells were induced to differentiate into exocrine pancreatic cells according to modified protocols shown in FIG. 1. Specifically, the following 5 steps were carried out.
# (Stage 1) ES cells were suspended in a RPMI1640 medium containing 2% B27 and Penicillin/Streptomycin, and then seeded in a matrigel-coated 24-well plate at 250,000/well. 100 ng/mL Activin A and 1 μM CHIR99021 were added to adjust the amount of the medium to be 0.5 mL/well, and then cells were cultured for 4 days.
# (Stage 2-1) The medium was substituted with DMEM containing 50 ng/ml […], 0.25 μM KAAD (3-Keto-N-(aminoethyl-aminocaproyl-dihydro-cinnamoyl))-cyclopamine, 1% L-Glutamin, 2% B27, 50 mU/L Penicillin and 50 μg/L Streptomycin, and then cells were cultured for 1 day.
# (Stage 2-2) The medium was substituted with DMEM containing 2 μM retinoic acid, 50 ng/ml FGF10, 0.25 μM KAAD-cyclopamine, 1% L-Glutamin, 2% B27, 50 mU/L Penicillin and […] Streptomycin, and then cells were cultured for 2 days.
# (Stage 2-3) The medium was substituted with DMEM containing 50 ng/ml FGF10, 300 nM (−)-indolactam V (ILV), 1% L-Glutamin, 2% B27, 50 mU/L Penicillin and 50 μg/L Streptomycin, and then cells were cultured for 2 days. […]
# [3] = Stage 3 culture 12 days, 0.5 mg/ml ligand protein instead of CHAP108
Molecule,"efficiency for inducing exocrine pancreatic cells [1, 3]","efficiency for inducing exocrine pancreatic cells ([1]; Stage 3 culture 4 days, 1 μM CHAP108 with 300 nM ILV)",Amylase positive rate [2]
"hDLL4: ligand protein for a Notch signal receptor, member of the Delta-like family",28.8%,–,–
CCC(C)C1NC(=O)C(Cc2ccc(OC)cc2)NC(=O)C(CCCCCN(O)C=O)NC(=O)C2CCCCN2C1=O (stereo not shown) [CHAP108],–,21.4%,56.3%
"hJAG1: ligand protein for a Notch signal receptor, member of the Jagged family",27.0%,–,–
